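Where inhibition never reached the appropriate level, the endpoint shown equals the highest concentration tested. Otherwise, values were interpolated linearly from a five-concentration, 48-hour dose response in 96-well plates. The concentration for 50% growth inhibition is given as GI50. TGI denotes the concentration required for complete inhibition of growth.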
What was measured:
Assay in all cases: NCI anticancer screen, dose series, 48 h
786-0 renal = tested on: 786-0 renal
A498 renal = tested on: A498 renal
A549 NSCLC = tested on: A549 NSCLC
ACHN renal = tested on: ACHN renal
BT-549 breast = tested on: BT-549 breast
CAKI-1 renal = tested on: CAKI-1 renal
CCRF-CEM leukemia = tested on: CCRF-CEM leukemia
DU-145 prostate = tested on: DU-145 prostate
EKVX NSCLC = tested on: EKVX NSCLC
HCC-2998 colon = tested on: HCC-2998 colon
HCT-15 colon = tested on: HCT-15 colon
HL-60(TB) leukemia = tested on: HL-60(TB) leukemia
HOP-92 NSCLC = tested on: HOP-92 NSCLC
HS 578T breast = tested on: HS 578T breast
IGROV1 ovarian = tested on: IGROV1 ovarian
K-562 leukemia = tested on: K-562 leukemia
KM12 colon = tested on: KM12 colon
M14 melanoma = tested on: M14 melanoma
MCF7 breast = tested on: MCF7 breast
MDA-MB-231 breast = tested on: MDA-MB-231 breast
MDA-MB-435 = tested on: MDA-MB-435
MOLT-4 leukemia = tested on: MOLT-4 leukemia
NCI-H226 lung = tested on: NCI-H226 lung
NCI-H23 lung = tested on: NCI-H23 lung
NCI-H460 lung = tested on: NCI-H460 lung
NCI-H522 lung = tested on: NCI-H522 lung
NCI/ADR-RES ovarian = tested on: NCI/ADR-RES ovarian
OVCAR-3 ovarian = tested on: OVCAR-3 ovarian
OVCAR-5 ovarian = tested on: OVCAR-5 ovarian
OVCAR-8 ovarian = tested on: OVCAR-8 ovarian
PC-3 prostate = tested on: PC-3 prostate
RPMI-8226 leukemia = tested on: RPMI-8226 leukemia
SF-268 CNS = tested on: SF-268 CNS
SF-295 CNS = tested on: SF-295 CNS
SF-539 CNS = tested on: SF-539 CNS
SK-MEL-2 melanoma = tested on: SK-MEL-2 melanoma
SK-MEL-5 melanoma = tested on: SK-MEL-5 melanoma
SN12C renal = tested on: SN12C renal
SR leukemia = tested on: SR leukemia
SW-620 colon = tested on: SW-620 colon
TK-10 renal = tested on: TK-10 renal
UACC-257 melanoma = tested on: UACC-257 melanoma
UACC-62 melanoma = tested on: UACC-62 melanoma
UO-31 renal = tested on: UO-31 renal
COLO 205 colon = tested on: COLO 205 colon
HCT-116 colon = tested on: HCT-116 colon
HOP-62 NSCLC = tested on: HOP-62 NSCLC
HT29 colon = tested on: HT29 colon
MALME-3M melanoma = tested on: MALME-3M melanoma
OVCAR-4 ovarian = tested on: OVCAR-4 ovarian
RXF 393 renal = tested on: RXF 393 renal
SK-MEL-28 melanoma = tested on: SK-MEL-28 melanoma
SK-OV-3 ovarian = tested on: SK-OV-3 ovarian
SNB-19 CNS = tested on: SNB-19 CNS
SNB-75 CNS = tested on: SNB-75 CNS
T-47D breast = tested on: T-47D breast
U251 CNS = tested on: U251 CNS

COc1ccc(OC)c(-c2cc(-c3ccc(Cl)cc3)nn2-c2ccccc2)c1
GI50 (786-0 renal): 17.3 µM | TGI (786-0 renal): 57.7 µM | GI50 (A498 renal): 6.57 µM | TGI (A498 renal): 59.7 µM | GI50 (A549 NSCLC): 65.8 µM | TGI (A549 NSCLC): > 100 µM | GI50 (ACHN renal): 46.2 µM | TGI (ACHN renal): > 100 µM | GI50 (BT-549 breast): 28.8 µM | TGI (BT-549 breast): 84.4 µM | GI50 (CAKI-1 renal): 24.2 µM | TGI (CAKI-1 renal): 66.9 µM | GI50 (CCRF-CEM leukemia): 8.57 µM | TGI (CCRF-CEM leukemia): > 100 µM | GI50 (DU-145 prostate): 96.7 µM | TGI (DU-145 prostate): > 100 µM | GI50 (EKVX NSCLC): 82.8 µM | TGI (EKVX NSCLC): > 100 µM | GI50 (HCC-2998 colon): 26.4 µM | TGI (HCC-2998 colon): 52.8 µM | GI50 (HCT-15 colon): 34.2 µM | TGI (HCT-15 colon): > 100 µM | GI50 (HL-60(TB) leukemia): 35.9 µM | TGI (HL-60(TB) leukemia): > 100 µM | GI50 (HOP-92 NSCLC): 29.3 µM | TGI (HOP-92 NSCLC): > 100 µM | GI50 (HS 578T breast): 18.5 µM | TGI (HS 578T breast): > 100 µM | GI50 (IGROV1 ovarian): 59.5 µM | TGI (IGROV1 ovarian): > 100 µM | GI50 (K-562 leukemia): 5.89 µM | TGI (K-562 leukemia): 42.4 µM | GI50 (KM12 colon): 23.1 µM | TGI (KM12 colon): > 100 µM | GI50 (M14 melanoma): 14.8 µM | TGI (M14 melanoma): 45.6 µM | GI50 (MCF7 breast): 6.89 µM | TGI (MCF7 breast): > 100 µM | GI50 (MDA-MB-231 breast): 17.8 µM | TGI (MDA-MB-231 breast): 80 µM | GI50 (MDA-MB-435): 18.3 µM | TGI (MDA-MB-435): 46.1 µM | GI50 (MOLT-4 leukemia): 8.7 µM | TGI (MOLT-4 leukemia): > 100 µM | GI50 (NCI-H226 lung): 33 µM | TGI (NCI-H226 lung): > 100 µM | GI50 (NCI-H23 lung): 27.7 µM | TGI (NCI-H23 lung): > 100 µM | GI50 (NCI-H460 lung): 33.8 µM | TGI (NCI-H460 lung): > 100 µM | GI50 (NCI-H522 lung): 12.6 µM | TGI (NCI-H522 lung): > 100 µM | GI50 (NCI/ADR-RES ovarian): 15.8 µM | TGI (NCI/ADR-RES ovarian): 60.9 µM | GI50 (OVCAR-3 ovarian): 23.7 µM | TGI (OVCAR-3 ovarian): 46.7 µM | GI50 (OVCAR-5 ovarian): 88.4 µM | TGI (OVCAR-5 ovarian): > 100 µM | GI50 (OVCAR-8 ovarian): 24.4 µM | TGI (OVCAR-8 ovarian): 93.9 µM | GI50 (PC-3 prostate): 24.2 µM | TGI (PC-3 prostate): > 100 µM | GI50 (RPMI-8226 leukemia): 3.29 µM | TGI (RPMI-8226 leukemia): 26.5 µM | GI50 (SF-268 CNS): 18.2 µM | TGI (SF-268 CNS): 57.8 µM | GI50 (SF-295 CNS): 33.5 µM | TGI (SF-295 CNS): > 100 µM | GI50 (SF-539 CNS): 36 µM | TGI (SF-539 CNS): 95.2 µM | GI50 (SK-MEL-2 melanoma): > 100 µM | TGI (SK-MEL-2 melanoma): > 100 µM | GI50 (SK-MEL-5 melanoma): 42.2 µM | TGI (SK-MEL-5 melanoma): > 100 µM | GI50 (SN12C renal): 23.9 µM | TGI (SN12C renal): 69.6 µM | GI50 (SR leukemia): 4.34 µM | TGI (SR leukemia): > 100 µM | GI50 (SW-620 colon): 17 µM | TGI (SW-620 colon): 78.4 µM | GI50 (TK-10 renal): 26.1 µM | TGI (TK-10 renal): 88.2 µM | GI50 (UACC-257 melanoma): 6.45 µM | TGI (UACC-257 melanoma): 49.1 µM | GI50 (UACC-62 melanoma): 11.2 µM | TGI (UACC-62 melanoma): 55.3 µM | GI50 (UO-31 renal): > 100 µM | TGI (UO-31 renal): > 100 µM

CCCCCCCCCCCCCCCCCC1=NC(C)(C)CN1C(C)(C)CO
GI50 (786-0 renal): 1.45 µM | TGI (786-0 renal): 2.89 µM | GI50 (A498 renal): 11.2 µM | TGI (A498 renal): 31.2 µM | GI50 (A549 NSCLC): 1.68 µM | TGI (A549 NSCLC): 3.31 µM | GI50 (ACHN renal): 1.53 µM | TGI (ACHN renal): 3.05 µM | GI50 (BT-549 breast): 3.28 µM | TGI (BT-549 breast): 14 µM | GI50 (CAKI-1 renal): 1.6 µM | TGI (CAKI-1 renal): 3.9 µM | GI50 (CCRF-CEM leukemia): 1.39 µM | TGI (CCRF-CEM leukemia): 4.88 µM | GI50 (COLO 205 colon): 0.407 µM | TGI (COLO 205 colon): 1.38 µM | GI50 (DU-145 prostate): 1.61 µM | TGI (DU-145 prostate): 3.03 µM | GI50 (EKVX NSCLC): 2.21 µM | TGI (EKVX NSCLC): 14 µM | GI50 (HCC-2998 colon): 1.2 µM | TGI (HCC-2998 colon): 2.5 µM | GI50 (HCT-116 colon): 0.559 µM | TGI (HCT-116 colon): 2.01 µM | GI50 (HCT-15 colon): 1.38 µM | TGI (HCT-15 colon): 3.16 µM | GI50 (HL-60(TB) leukemia): 1.15 µM | TGI (HL-60(TB) leukemia): 4.07 µM | GI50 (HOP-62 NSCLC): 1.72 µM | TGI (HOP-62 NSCLC): 3.19 µM | GI50 (HOP-92 NSCLC): 0.85 µM | TGI (HOP-92 NSCLC): 3.37 µM | GI50 (HS 578T breast): 1.62 µM | TGI (HS 578T breast): 3.98 µM | GI50 (HT29 colon): 1.44 µM | TGI (HT29 colon): 3.44 µM | GI50 (IGROV1 ovarian): 1.08 µM | TGI (IGROV1 ovarian): 2.6 µM | GI50 (K-562 leukemia): 1.11 µM | TGI (K-562 leukemia): 4.05 µM | GI50 (KM12 colon): 1.34 µM | TGI (KM12 colon): 2.64 µM | GI50 (M14 melanoma): 1.46 µM | TGI (M14 melanoma): 2.88 µM | GI50 (MALME-3M melanoma): 1.94 µM | TGI (MALME-3M melanoma): 4.22 µM | GI50 (MDA-MB-231 breast): 1.29 µM | TGI (MDA-MB-231 breast): 3.16 µM | GI50 (MDA-MB-435): 1.58 µM | TGI (MDA-MB-435): 3.42 µM | GI50 (MOLT-4 leukemia): 1.45 µM | TGI (MOLT-4 leukemia): 4.05 µM | GI50 (NCI-H226 lung): 2.14 µM | TGI (NCI-H226 lung): 4.06 µM | GI50 (NCI-H23 lung): 1.52 µM | TGI (NCI-H23 lung): 2.99 µM | GI50 (NCI-H460 lung): 1.31 µM | TGI (NCI-H460 lung): 2.8 µM | GI50 (NCI-H522 lung): 1.63 µM | TGI (NCI-H522 lung): 3.25 µM | GI50 (OVCAR-3 ovarian): 1.5 µM | TGI (OVCAR-3 ovarian): 2.96 µM | GI50 (OVCAR-4 ovarian): 2.05 µM | TGI (OVCAR-4 ovarian): 4.92 µM | GI50 (OVCAR-5 ovarian): 1.56 µM | TGI (OVCAR-5 ovarian): 3.48 µM | GI50 (PC-3 prostate): 1.85 µM | TGI (PC-3 prostate): 4.81 µM | GI50 (RPMI-8226 leukemia): 1.8 µM | TGI (RPMI-8226 leukemia): 4.37 µM | GI50 (RXF 393 renal): 1.11 µM | TGI (RXF 393 renal): 2.36 µM | GI50 (SF-268 CNS): 1.54 µM | TGI (SF-268 CNS): 3.02 µM | GI50 (SF-539 CNS): 1.59 µM | TGI (SF-539 CNS): 3.14 µM | GI50 (SK-MEL-2 melanoma): 1.83 µM | TGI (SK-MEL-2 melanoma): 3.51 µM | GI50 (SK-MEL-28 melanoma): 1.81 µM | TGI (SK-MEL-28 melanoma): 3.28 µM | GI50 (SK-MEL-5 melanoma): 1.68 µM | TGI (SK-MEL-5 melanoma): 3.07 µM | GI50 (SK-OV-3 ovarian): 1.84 µM | TGI (SK-OV-3 ovarian): 3.51 µM | GI50 (SN12C renal): 1.52 µM | TGI (SN12C renal): 3.25 µM | GI50 (SNB-19 CNS): 1.79 µM | TGI (SNB-19 CNS): 4.54 µM | GI50 (SNB-75 CNS): 1.47 µM | TGI (SNB-75 CNS): 3.13 µM | GI50 (SW-620 colon): 1.48 µM | TGI (SW-620 colon): 2.9 µM | GI50 (T-47D breast): 2.3 µM | TGI (T-47D breast): 5.55 µM | GI50 (TK-10 renal): 1.83 µM | TGI (TK-10 renal): 3.34 µM | GI50 (U251 CNS): 1.42 µM | TGI (U251 CNS): 3.03 µM | GI50 (UACC-257 melanoma): 1.78 µM | TGI (UACC-257 melanoma): 3.5 µM | GI50 (UACC-62 melanoma): 1.79 µM | TGI (UACC-62 melanoma): 3.46 µM | GI50 (UO-31 renal): 1.42 µM | TGI (UO-31 renal): 3.43 µM

Source: PubChem BioAssay (NCI)
